According to US20160289663A1, “NOVEL CHIMERIC GENE ATF7IP-PDGFRB OF ACUTE LYMPHOBLASTIC LEUKEMIA” (priority 2013, published 2016):
Structures can show the parent of a compound that is named as a salt.

How the values were obtained:
[1] = system: Mock Ba/F3 cells; experiment: Cell proliferation (WST) assay, Mock Ba/F3 cells with WEHI-3-conditioned medium; format: cell-based, mouse; conditions: 24 hours, presence of conditioned medium, FIG. 10A
Experimental: The data were analyzed by F-test. P values less than 0.05 were considered significant.

[2] = system: ATF7IP-PDGFRB-expressing Ba/F3 cells; experiment: Cell proliferation (WST) assay, ATF7IP-PDGFRB Ba/F3 transfectants without conditioned medium; conditions: for effect on viable cell number: next-generation TKIs, FIG. 13
Experimental: (A) ATF7IP-PDGFRB-expressing Ba/F3 cells in the absence of WEHI-3-conditioned medium (CM) and Mock Ba/F3 cells in the presence of CM were each treated with or without either the PI3 kinase inhibitor LY294002 or the MEK inhibitor PD98059 at the indicated concentrations for 24 hours. Subsequently, the number of living cells was estimated for each type of the cells by WST assay in the same way as in FIG. 5B. The ratio of the OD value obtained from the inhibitor-treated cells relative to that obtained from the inhibitor-untreated cells was calculated and expressed as the means±SEM of triplicates. (B) ATF7IP-PDGFRB-expressing Ba/F3 cells were treated with PD98059 in the presence or absence of CM, and examined in the same way as in (A). […]
The data were analyzed by F-test. P values less than 0.05 were considered significant. All experiments were performed at least three times to calculate means and SEM values.

[3] = system: phosphorylation of MAP kinases/AKT and PDGFRB in ATF7IP-PDGFRB-expressing Ba/F3 cells; experiment: Immunoblot of MAP kinase/AKT/PDGFRB phosphorylation in ATF7IP-PDGFRB Ba/F3 cells; format: cell-based, mouse; conditions: immunoblotting, FIG. 11
Experimental: Cell lysates were prepared from the same sample preparations as in FIG. 10. Immunoblot analysis was performed in the same way as in FIG. 8. Abbreviations: None, without inhibitor; LY, with LY294002; and PD, with PD98059.
Immunoblot analysis was performed as in FIG. 8.
Immunoblot analysis was performed as described previously (Kiyokawa, et al., J Biol Chem, 1997, 272, 18656-18665; Tomita, et al., Leukemia Research, 2014, 38, 361-370) using the following antibodies: anti-phosphotyrosine (4G10; Merck Millipore), anti-PDGF receptor β (28E1), anti-phospho-PDGF receptor β Tyr751 (C63G6), anti-phospho-PDGF receptor β Tyr 771 (76D6), anti-phospho-PDGF receptor β Tyr1009 (42F9), anti-phospho-PDGF receptor β Tyr1021 (6F10), anti-phospho-p44/42 MAPK (ERK1/2, Tyr202/Tyr204), anti-phospho-p38 MAPK (Thr180/Tyr182), anti-phospho-JNK (Thr183/Tyr185, 81E11), anti-phospho-AKT (Ser473), anti-phospho-PLCγ1 (Tyr783), anti-Casitas B-lineage lymphoma binding (Cbl), anti-p38 MAPK antibody and anti-JNK antibody (Cell Signaling Technology); anti-ATF7IP (MCAF1) (Abcam, Cambridge, UK); anti-ERK, anti-PLCγ, (BD Biosciences, San Jose, Calif., USA); anti-β-actin (Sigma-Aldrich, St. Louis, Mo.); and horseradish peroxidase (HRP)-conjugated secondary antibody (Dako, Glostrup, Denmark). […]

[4] = system: recurrent Ph-like acute lymphoblastic leukemia bearing ATF7IP/PDGFRB translocation; experiment: Dasatinib monotherapy case report, MRD monitored by leukemia-specific genomic PCR; format: in vivo, human; conditions: one patient, 66 mg/m^2/day
Experimental: (A) The therapeutic response was evaluated by fluorescence in situ hybridization (FISH), RT-PCR (Kobayashi K., et al., Br J Haematol, 2014, 165, 836-841), and genomic PCR.
This example describes a monotherapy with the tyrosine kinase inhibitor (TKI) dasatinib in a patient with recurrent Ph-like acute lymphoblastic leukemia bearing ATF7IP/PDGFRB translocation.

[5] = system: myeloid malignancies bearing PDGFRB fusion genes; conditions: without secondary resistance; Cheah et al., Blood 2014; cited from earlier work
[6] = Mus musculus, BaF3, 48 h, read-out: viable cell number

In the case of `COc1cccc(-c2cc(=O)c3ccccc3o2)c1N` [PD98059], the cell death [1] is reported as “not in the Mock-expressing Ba/F3 cells”, the cell death ([2]; 24 hours, absence of conditioned medium, FIG. 10A) is reported as “induced cell death” and the “MEK inhibitor-induced cell death with simultaneous conditioned medium containing IL3” value ([2]; presence of conditioned medium, FIG. 10B) is reported as “partially avoided”. For the same compound, the “phosphorylation of MAP kinase” value [3] was “markedly reduced”.
In the case of `Cc1nc(Nc2ncc(C(=O)Nc3c(C)cccc3Cl)s2)cc(N2CCN(CCO)CC2)n1` [dasatinib], the “duration of complete molecular remission” value [4] is reported as no less than 12 months, the “time to disappearance of MRD” value ([4]; leukemia-specific genomic PCR) is reported as no more than 3 months and the viability at 0.0025 µM [2, 6] is reported as less than 10%.
In the case of `Cc1ccc(NC(=O)c2ccc(CN3CCN(C)CC3)cc2)cc1Nc1nccc(-c2cccnc2)n1` [imatinib mesylate], the “10-year overall survival rate” value [5] is given as 90%.
In the case of `Cc1ccc(NC(=O)c2ccc(CN3CCN(C)CC3)cc2)cc1Nc1nccc(-c2cccnc2)n1` [imatinib], the cell proliferation ([2]; IL-3-independent proliferation, exposure to TKI) is reported as “significantly inhibited in a concentration-dependent manner” and the viability at 0.025 µM [2, 6] is reported as less than 10%.
With `Cc1cn(-c2cc(NC(=O)c3ccc(C)c(Nc4nccc(-c5cccnc5)n4)c3)cc(C(F)(F)F)c2)cn1` [nilotinib] the “effect on viable cell number” value [2] was “effectively reduced the viable cell number”.
In the case of `CNC(=O)c1cc(Oc2ccc(NC(=O)Nc3cc(C(C)(C)C)nn3-c3ccc4ncccc4c3)c(F)c2)ccn1` [rebastinib], the “effect on viable cell number” value [2] is reported as “effectively reduced the viable cell number”.
